Assay results reported in patent US8293506B2, “L-cysteine-producing bacterium and a method for producing L-cysteine” (Ajinomoto Co., Inc., priority 2009, dated 2012).

How the values were obtained:
[1] = tested on: dsbA-deficient strain JW3832/pCA24; assay: Growth test on L agar medium containing cysteine, dsbA-deficient strain; type: cell-based, Escherichia coli; conditions: L agar with 10, 15, 20 mM cysteine, 37° C. overnight; FIG. 1
Description: (§1) Since a dsbA-deficient strain was obtained by the screening of the Keio Collection, growth of the gene-deficient strain was observed on the agar medium containing cysteine of different concentrations in order to analyze the sensitivity of that strain to cysteine in more detail. Furthermore, as for the to/C gene (Japanese Patent Application No. 2008-040167, Wiriyathanawudhiwong, N. et al., Appl. Microbiol. Biotechnol. (2009) 81:903-913), which was previously obtained in a similar manner, and of which deletion is known to induce cysteine sensitivity, a similar experiment was performed by using a to/C-deficient strain. The dsbA-deficient strain and to/C-deficient strain used in this experiment were JW3832 strain and JW5503 strain, respectively (both were included in the Keio collection), and their parent strain was the BW25113 strain (Andreas Haldimann, A. and Wanner, B. L., J. Bacteriol., 2001 November, 183 (21):6384-6393). The plasmids carrying the dsbA gene and the to/C gene for the complementation experiment were pDsbA and pTo1C (ASKA clone (Kitagawa, M., et al., 2005, DNA Res., 12:291-299)), and the vector used as the base of them was pCA24 (vector for ASKA clone (Kitagawa, M., et al., 2005, DNA Res., 12:291-299)). […]

[2] = tested on: wild-type strains (E. coli BW25113); assay: Screening of Keio collection on LB agar containing cysteine; type: cell-based, Escherichia coli; conditions: overnight at 37° C.
Experimental: The 3,985 clones of the Keio collection were cultured at 37° C. for 15 hours in 0.5 ml of LB liquid medium. This culture medium was stamped on LB agar media containing cysteine at different concentrations (0, 15, 20, 25 mM), and culture was performed overnight at 37° C. Clones that were cysteine sensitive at the growth inhibition concentration of cysteine for wild-type strains (20 mM) were visually selected. […] A dsbA gene-deficient strain was obtained as a clone showing particularly strong and distinctive cysteine sensitivity among the above candidates.

[3] = target: T1, DsbA protein (Escherichia coli, UniProt P0AEG4); assay: Oxidized and reduced states of DsbA protein (AMS modification, Western blotting); type: cell-based; conditions: wild-type strain, 5 mM cysteine, 20 minutes; FIG. 2
T1 construct: endogenous in cells; host or cells: E. coli BW25113 (wild-type strain, also with pYdeD)
Description: The strains used in this experiment were the E. coli BW25113 strain (Andreas Haldimann and Barry L. Wanner, J. Bacteriol., 2001 November, 183 (21):6384-6393) as a wild-type parent strain, the dsbA-deficient JW3832 strain and dsbB-deficient JW5182 strain derived from BW25113 strain (Baba, T, et al., 2006, Mol. Syst. Biol., 2:2006.0008). As a plasmid carrying the dsbB gene, pDsbB (ASKA clone, Kitagawa, M. et al., 2005, DNA Res., 12:291-9) was used.
In order to distinguish the oxidized state and the reduced state of the DsbA protein, the protein was modified with AMS (4-acetamido-4′-maleimidyl-stilbene-2,2′-disulfonate) (Kadokura, H. et al., 2004, Science, 303, 534-537). Each of the wild-type strain, the dsbA-deficient strain, the dsbB-deficient strain, the wild-type strain +pYdeD and the dsbB-deficient strain +pDsbB was cultured overnight at 30° C. in 3 ml of LB medium, and the resulting culture was used as a preculture medium. The preculture medium was inoculated into the LB medium in a 1% amount, and culture was performed at 30° C. with shaking until OD660 reached 0.4 to 0.5. […]
The labeled protein was then separated by non-reduced SDS gel electrophoresis (12.5%), and then detected by Western blotting. […] The label was detected by using ECL Plus Western Blotting Detection Reagents (Amersham).

[4] = tested on: OstA protein; assay: Oxidized and reduced states of OstA protein (AMS modification, Western blotting); type: cell-based, Escherichia coli; conditions: wild-type strain with pmyc-OstA, 5 mM L-cysteine; FIG. 3
Description: Since it was elucidated that the reduced type DsbA was accumulated by cysteine (reduction stress), it was decided to investigate toxicity of cysteine and oxidized and reduced states of a protein in the periplasm. The OstA is a protein in the periplasm indispensable to growth, and requires disulfide bond formed by DsbA. In order to investigate the oxidized and reduced states of the OstA protein, the E. coli BW25113 strain as the wild-type parent strain and the dsbA-deficient JW3832 strain derived from the BW25113 strain were used, and the plasmid pmyc-OstA for expressing OstA fused with an Myc tag (Kadokura, H. et al., 2004, Science, 303, 534-537) was introduced into them. Under the same culture conditions as those of the aforementioned experiment for investigating the oxidized and reduced states of DsbA, addition of L-cysteine (final concentration: 5 mM) and modification of the protein with AMS (4-acetamido-4′-maleimidyl-stilbene-2,2′-disulfonate) were performed, and the OstA protein was detected by Western blotting. As the antibody, anti-Myc (mouse) was used in this experiment.

[5] = tested on: to/C-deficient strain JW5503/pCA24; assay: Growth test on L agar medium containing cysteine, tolC-deficient strain; type: cell-based, Escherichia coli; conditions: L agar with 10, 15, 20 mM cysteine, 37° C. overnight; FIG. 1
Description: as §1

T1 sequence (P0AEG4 20-208): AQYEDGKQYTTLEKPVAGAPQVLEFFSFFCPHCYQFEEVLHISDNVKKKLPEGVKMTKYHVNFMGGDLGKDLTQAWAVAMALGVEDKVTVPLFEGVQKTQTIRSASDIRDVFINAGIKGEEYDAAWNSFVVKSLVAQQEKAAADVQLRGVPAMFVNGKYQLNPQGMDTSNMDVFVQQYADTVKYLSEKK

With N[C@@H](CS)C(=O)O [cysteine, L-cysteine] the “cysteine sensitivity (growth) compared with control strain BW25113/pCA24” value [1] was “marked cysteine sensitivity”, the “growth inhibition concentration of cysteine for wild-type strains” value [2] was 20 mM and the “DsbA-DsbB complex after exposure to cysteine” value [3] was “markedly accumulated”. For the same compound, the “oxidized/reduced state of DsbA after exposure to cysteine” value [3] was “the reduced type DsbA accumulated”, the “oxidized/reduced state of OstA after addition of cysteine” value [4] was “the reduced type accumulated” and the “cysteine sensitivity (growth) compared with control strain BW25113/pCA24” value [5] was “marked cysteine sensitivity”.
